Data: publication PMC11201061, “Mechanistic Study of Antimicrobial Effectiveness of Cyclic Amphipathic Peptide [R4W4] against Methicillin-Resistant Staphylococcus aureus Clinical Isolates” (Antibiotics, 2024)
Where a SMILES comes first, the peptide text is derived from it.

Key:
in vitro = conditions: human, 100% human plasma
Protocol: At the end of incubation at each of the time points, acetonitrile was added to the incubation mixture, followed by centrifugation. Samples were analyzed by HPLC-MS/MS, and peak areas were recorded for each analyte. The area of precursor compound remaining after each time point relative to the amount remaining at time zero, expressed as percent, is calculated. Subsequently, the half-life (T1/2) is estimated from the slope of the initial linear range of the logarithmic curve of the compound remaining (%) versus time, assuming first-order kinetics. The plasma stability experiment was performed at Eurofins Inc. (San Diego, CA, USA) [56].

[1] = 25% fresh human serum in RPMI buffer, 37 °C, peptide 100 µg/mL, 20 h; LC-MS; three independent experiments
Protocol: Fresh human serum (4 mL) was centrifuged at 12,500× g for 15 min at 4 °C to remove the lipids. A 25% human serum sample was prepared by adding 375 µL of the human serum supernatant to 1125 µL of RPMI buffer. […] The test sample was incubated in a water bath at 37 °C until a predetermined time interval (0, 1, 2, 4, 6, 8.5, 12, and 20 h). At the time intervals, a 150 µL aliquot test sample was added to a 300 µL cocktail solution [ethanol/formic acid (98:2 v/v) mixture] to cease the reaction. The test samples of aliquots were stored on dry ice for 20 min and then centrifuged at 17,200× g for 20 min. For LC-MS analysis, 150 µL supernatant aliquot test samples were stored at −20 °C [54].
A 20 μL aliquot of each sample was analyzed using an Xterra MS C18 column (3.9 × 150 mm, 5 μm, Waters, MA, USA), Nexera XR, and Prominence Shimadzu LC-20AD XR systems (Shimadzu Corporation, Kyoto, Japan) coupled with Shimadzu LC-MS-2020 mass spectrometer (Shimadzu, OR, USA). A two-component LC system consisted of mobile phase A (0.1% formic acid and 10% acetonitrile in water) and mobile phase B (0.1% formic acid and 100% acetonitrile). The flow rate was set at 1.0 mL/min. The Xterra MS C18 column at 40 °C was allowed to equilibrate with 95% mobile phase A. Peptides were loaded to the column and washed for 5 min with 95% mobile Phase A. Analytes were separated using a binary gradient of 0–95% mobile Phase B for 25 min. […] MS was conducted in multiple reaction monitoring and positive electrospray ionization mode. Fourteen concentrations of [R4W4] prepared by two-fold dilution of 200 μg/mL to 0.39 μg/mL were used to prepare calibration curves. The calibration curves were plotted using weighted (1/×2) least-squares linear regression analysis of peptide mass spectra area under the curve (AUC) versus concentration.

MRSA USA300 = experiment: Checkered board synergy assay with gentamicin; format: cell-based, Staphylococcus aureus
Protocol: (§1) An amount of 100 µL of [R4W4] peptide test solution at a final concentration of 512 µg/mL was added to each well A-G column 1 in plate A using a multi-channel pipette. A 50 µL MH Broth was added to micro-plate well A-G columns 2–9. Using a multi-channel pipette, a two-fold serial dilution was performed by removing 50 µL solution from column 1 and was added to column 2 with thorough mixing. The micro-pipette was discarded after each transfer. The last portion after column 9 was discarded. In another microplate, 100 µL MHB was added to well B-G columns 1–11 using a multi-channel pipette. A 200 µL gentamicin test solution 512 µg/mL was added to row A, columns 1–11. A two-fold serial dilution was performed by removing 100 µL from rows A to B. The last portion was discarded. Using eight multi-channel pipettes, 50 µL of gentamicin test solution was transferred in the ordinate column A-G row 1 to the first microplate. The plate was incubated at 37 °C for 18–24 h. The fractional inhibitory concentration (FIC) of the antibacterial agents and the fractional inhibitory concentration index (FICI) of the two antibacterial agents were determined to evaluate the synergistic interaction. The FICI was interpreted as follows: FICI ≤ 0.5, synergy; 0.5 < FICI ≤ 1, partial synergy; 1 ≤ FICI < 4, additive effect or indifference; 4 ≤ FICI antagonism and calculated from the mean values from multiple experiments.

E. coli 25922 = experiment: Checkered board synergy assay with gentamicin; format: cell-based, Escherichia coli
Protocol: as §1

N=C(N)NCCC[C@@H]1NC(=O)[C@H](CCCNC(=N)N)NC(=O)[C@H](CCCNC(=N)N)NC(=O)[C@H](Cc2c[nH]c3ccccc23)NC(=O)[C@H](Cc2c[nH]c3ccccc23)NC(=O)[C@H](Cc2c[nH]c3ccccc23)NC(=O)[C@H](Cc2c[nH]c3ccccc23)NC(=O)[C@H](CCCNC(=N)N)NC1=O [[R4W4]] (cyclo(RRRRWWWW))
half-life at 1 µM (in vitro): ~1.43 h
remaining [R4W4] (intact peptide) [1]: over 70%
MIC(A+B) ([R4W4] in combination with gentamicin) (MRSA USA300; MRSA USA300, checkered board): 1.5 µg/mL
MICA ([R4W4] alone) (MRSA USA300; MRSA USA300, checkered board, 37 °C, 18–24 h, mean values from multiple experiments): 6 µg/mL
FICA (MRSA USA300; MRSA USA300, fractional inhibitory concentration of [R4W4]): 0.25
reduction in MIC value in combination (MRSA USA300; MRSA, [R4W4] + gentamicin combination versus alone): 4 fold
MIC(A+B) ([R4W4] in combination with gentamicin) (E. coli 25922; E. coli 25922, checkered board): 1.5 µg/mL
MICA ([R4W4] alone) (E. coli 25922; E. coli 25922, checkered board, 37 °C, 18–24 h, mean values from multiple experiments): 32 µg/mL
FICA (E. coli 25922; E. coli 25922, fractional inhibitory concentration of [R4W4]): 0.05
reduction in MIC value in combination (E. coli 25922; E. coli, [R4W4] + gentamicin combination versus alone): 2 fold
